From patent EP4678638A1, “NEW E3 UBIQUITIN LIGASE LIGAND, PROTEIN DEGRADATION AGENT AND USE THEREOF” (priority 2023, dated 2024) come the findings set out here.

Molecules are shown by their SMILES. Like-named read-outs stand apart in the source and are kept apart here.

Holding throughout (type): cell-based, Human
One assay relates to PC-9. Kind of assay: CCK-8 proliferation, PC-9. To be noted: read-out: Inhibitory activity (IC50) on tumor cell proliferation, PC-9. Summed up:
(§1)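 CCK-8 viability readout; IC50 from growth-inhibition curve fitting. Cells plated, dosed 24h later with a 10-point series, top 10µM, 5-fold steps. Culture at 37°C, 5% CO2.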

The next assay has as its system H1975. Kind of assay: CCK-8 proliferation, NCI-H1975 (H1975). To be noted: read-out: Inhibitory activity (IC50) on tumor cell proliferation, H1975. Summed up:
as §1

In assay [1] the test system is H1975-1µM Osimertinib cells. Kind of assay: CCK-8 proliferation, osimertinib-resistant H1975 cells. The method, then:
(§2) The tumor cells used herein were cultured in a cell culture medium listed in table A1 at 37°C in an incubator with 5% CO2. Prior to experimentation, all cell lines used were correctly identified by STR profiling, and tested negative for mycoplasma contamination using a mycoplasma detection kit through routine screenings. Table A1. Tumor cells and cell culture medium used in the present disclosure
(§3) IC50 values of the compounds of the present disclosure (including the compounds in Table 1, and compounds of examples) were measured using the Meilun Cell Counting Kit-8 kit from Dalian Meilun Biotech Co., Ltd. Assay details are as follows: tumor cells were seeded in a 96-well plate at a density listed in Table A2. After 24h, 100 µL of the inoculated cells were treated with 0.5µL of the compounds of the present disclosure (including the compounds in Tables 1 and 2, and compounds of examples) at 10 different successively decreasing concentrations (starting at the highest concentration of 10µM; 5-fold serial dilutions). After the cells were treated with the compounds of the present disclosure for a period of time, the cell viability detection reagent was added to the culture medium for cell viability assessment according to the instructions provided with the CCK-8 kit. […] The growth inhibition of the compounds of the present disclosure on cells was plotted by Prism Graphpad software, and the IC50 values of the compounds of the present disclosure were calculated therefrom. […] Seeding protocol and treatment time for tumor cells

The subject of another assay is HCC827. Kind of assay: CCK-8 proliferation, HCC827. To be noted: read-out: Inhibitory activity (IC50) on tumor cell proliferation, HCC827. As for the experimental part: as §2, §3
Another assay relates to EGFR. Kind of assay: Western blot degradation of EGFR (H1975 Cell). To be noted: Table D2. The method in brief: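 Degradation is assessed by immunoblotting lysates of treated cells. Target bands are quantified by grayscale and normalised to an internal control, so degradation rate equals 100% minus % remaining.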
(In general: Immunoblotting shows a protein as a band on a membrane.)

The mark [2] stands for this setting: Homo sapiens, PC-9, CCK-8, 96 hours.
The mark [3] stands for this setting: Homo sapiens, NCI-H1975, CCK-8, 96 hours.
[4] abbreviates: Homo sapiens, NCI-H1975, CCK-8, osimertinib-resistant H1975 cells obtained by treating H1975 cells with 1 µM Osimertinib for 3 months, read-out: Inhibitory activity (IC50) on tumor cell proliferation, H1975-1µm Osimertinib.
Where [5] appears, read: Homo sapiens, HCC827, CCK-8, 96 hours.

`COc1cc(N2CCC(N(C)Cc3ccc(C4CCC(=O)NC4=O)cc3)CC2)c(C)cc1Nc1ncc(Br)c(Nc2ccc3nccnc3c2P(C)(C)=O)n1` (stereo not shown) [GT-03930, 3-(4-(((1-(4-((5-bromo-4-((5-(dimethylphosphoryl)quinoxalin-6-yl)amino)pyrimidin-2-yl)amino)-5-methoxy-2-methylphenyl)piperidin-4-yl)(methyl)amino)methyl)phenyl)piperidine-2,6-dione]: the IC50 in the assay with PC-9 (setting [2]) was in the range of 100 to 500 nM; in the assay with H1975 (setting [3]), 50 to 100 nM; in assay [1] (setting [4]), 500 to 1000 nM; in the assay on HCC827 (setting [5]), 100 to 500 nM.
With `CN(Cc1cccc(NC2CCC(=O)NC2=O)c1)C1CCN(c2ccc(-c3cc(F)c4c(c3)C(=O)N(C(C(=O)Nc3nccs3)c3ncn5c3CCC5)C4)cc2)CC1` (stereo not shown) [GT-05284, 2-(6,7-dihydro-5H-pyrrolo[1,2-c]imidazol-1-yl)-2-(6-(4-(4-((3-((2,6-dioxopiperidin-3-yl)amino)benzyl)(methyl)amino)piperidin-1-yl)phenyl)-4-fluoro-1-oxoisoindolin-2-yl)-N-(thiazol-2-yl)acetamide], the IC50 in the assay with H1975 (setting [3]) lay within 1 to 10 nM; in assay [1] (setting [4]) it was 500 to 1000 nM. Also, in the assay on EGFR, the “Degradation of substrate protein EGFR (substrate protein remaining %)” value (“Degradation … (substrate protein remaining %)” for short) is recorded as “A (A is defined as 0% ≤ substrate protein remaining % ≤ 80%)”.
In the case of `O=C1CCN(c2ccc(CN3CCN(C4CCN(c5ccc(NC6=NC=C7N=C(Nc8ccccc8)N(C8CCCC8)C7N6)cc5)CC4)CC3)cn2)C(=O)N1` (stereo not shown) [GT-05942, 1-(5-((4-(1-(4-((9-cyclopentyl-8-(phenylamino)-4,9-dihydro-3H-purin-2-yl)amino)phenyl)piperidin-4-yl)piperazin-1-yl)methyl)pyridin-2-yl)dihydropyrimidine-2,4(1H,3H)-dione], the IC50 in the assay on PC-9 (setting [2]) lay in the range of 1 to 10 nM; in assay [1] (setting [4]) it was 500 to 1000 nM; in the assay with HCC827 (setting [5]), 10 to 50 nM. In addition, in the assay with EGFR, the “Degradation … (substrate protein remaining %)” value is recorded as “A (A is defined as 0% ≤ substrate protein remaining % ≤ 80%)”.
Turning to `COc1cc(N2CCC(N(C)Cc3ccc(N4CCC(=O)NC4=O)cc3)CC2)c(C)cc1Nc1ncc(Br)c(Nc2ccc3nccnc3c2P(C)(C)=O)n1` [GT-05951, 1-(4-(((1-(4-((5-bromo-4-((5-(dimethylphosphoryl)quinoxalin-6-yl)amino)pyrimidin-2-yl)amino)-5-methoxy-2-methylphenyl)piperidin-4-yl)(methyl)amino)methyl)phenyl)dihydropyrimidine-2,4(1H,3H)-dione], the IC50 with PC-9 (setting [2]) fell in the range of 100 to 500 nM; in assay [1] (setting [4]) it was 500 to 1000 nM. Besides, in the assay on EGFR, the “Degradation … (substrate protein remaining %)” value is given as “A (A is defined as 0% ≤ substrate protein remaining % ≤ 80%)”.
For `COc1cc(N2CCC(N(C)Cc3ccc(N4CCC(=O)NC4=O)cn3)CC2)c(C)cc1Nc1ncc(Br)c(Nc2ccc3nccnc3c2P(C)(C)=O)n1` [GT-05952, 1-(6-(((1-(4-((5-bromo-4-((5-(dimethylphosphoryl)quinoxalin-6-yl)amino)pyrimidin-2-yl)amino)-5-methoxy-2-methylphenyl)piperidin-4-yl)(methyl)amino)methyl)pyridin-3-yl)dihydropyrimidine-2,4(1H,3H)-dione], the IC50 in the assay on PC-9 (setting [2]) lay in the range of 100 to 500 nM; in assay [1] (setting [4]) it was 500 to 1000 nM; in the assay with HCC827 (setting [5]) it was 500 to 1000 nM. Also, the “Degradation … (substrate protein remaining %)” value in the assay on EGFR is given as “A (A is defined as 0% ≤ substrate protein remaining % ≤ 80%)”.
Turning to `CC(C)n1nc(N2CCC(N(C)Cc3ccc(C4CCC(=O)NC4=O)cc3)CC2)c2cnc(Nc3ccnc(-c4cnn(S(=O)(=O)C5CC5)c4)n3)cc21` (stereo not shown) [GT-06020, 3-(4-(((1-(6-((2-(1-(cyclopropylsulfonyl)-1H-pyrazol-4-yl)pyrimidin-4-yl)amino)-1-isopropyl-1H-pyrazolo[4,3-c]pyridin-3-yl)piperidin-4-yl)(methyl)amino)methyl)phenyl)piperidine-2,6-dione], the IC50 with PC-9 (setting [2]) lay in the range of 50 to 100 nM; in assay [1] (setting [4]), 100 to 500 nM; with HCC827 (setting [5]) it was 100 to 500 nM.
For the compound `CC(C)n1nc(N2CCC(N3CCN(Cc4cccc(N5CCC(=O)NC5=O)c4)CC3)CC2)c2cnc(Nc3ccnc(-c4cnn(S(=O)(=O)C5CC5)c4)n3)cc21` [GT-06080, 1-(3-((4-(1-(6-((2-(1-(cyclopropylsulfonyl)-1H-pyrazol-4-yl)pyrimidin-4-yl)amino)-1-isopropyl-1H-pyrazolo[4,3-c]pyridin-3-yl)piperidin-4-yl)piperazin-1-yl)methyl)phenyl)dihydropyr imidine-2,4(1H,3H)-dione], the IC50 (in the assay on PC-9 (setting [2]); in assay [1] (setting [4])) was 500 to 1000 nM throughout.
For the compound `CC(C)n1nc(N2CCC(N3CCN(Cc4ccc(N5CCC(=O)NC5=O)nc4)CC3)CC2)c2cnc(Nc3ccnc(-c4cnn(S(=O)(=O)C5CC5)c4)n3)cc21` [GT-06082, 1-(5-((4-(1-(6-((2-(1-(cyclopropylsulfonyl)-1H-pyrazol-4-yl)pyrimidin-4-yl)amino)-1-isopropyl-1H-pyrazolo[4,3-c]pyridin-3-yl)piperidin-4-yl)piperazin-1-yl)methyl)pyridin-2-yl)dihydropyrimidine-2,4(1H,3H)-dione], the figures for the IC50 (with PC-9 (setting [2]); in the assay with H1975 (setting [3]); in assay [1] (setting [4])) were 100 to 500 nM, 100 to 500 nM and 10 to 50 nM, respectively.
`O=C1CCN(c2ccc(CN3C[C@H]4C[C@@H]3CN4c3ccc(-c4cc(F)c5c(c4)C(=O)N(C(C(=O)Nc4nccs4)c4ncn6c4CCC6)C5)cc3)nc2)C(=O)N1` (stereo partly drawn) [GT-06190, 2-(6,7-dihydro-5H-pyrrolo[1,2-c]imidazol-1-yl)-2-(6-(4-((1R,4R)-5-((5-(2,4-dioxotetrahydropyrimidin-1(2H)-yl)pyridin-2-yl)methyl)-2,5-diazabicyclo[2.2.1]heptan-2-yl)phenyl)-4-fluoro-1-oxoisoindolin-2-yl)-N-(thiazol-2-yl)acetamide]: the IC50 fell in the range of 1 to 10 nM in the assay on H1975 (setting [3]) and 100 to 500 nM in assay [1] (setting [4]). The “Degradation … (substrate protein remaining %)” value in the assay with EGFR was “A (A is defined as 0% ≤ substrate protein remaining % ≤ 80%)”.
Consider `O=C1CCC(Nc2cccc(CN3CCN(C4CCN(c5ccc(-c6cc(F)c7c(c6)C(=O)N(C(C(=O)Nc6nccs6)c6ncn8c6CCC8)C7)cc5)CC4)CC3)c2)C(=O)N1` (stereo not shown) [GT-06247, 2-(6,7-dihydro-5H-pyrrolo[1,2-c]imidazol-1-yl)-2-(6-(4-(4-(4-(3-((2,6-dioxopiperidin-3-yl)amino)benzyl)piperazin-1-yl)piperidin-1-yl)phenyl)-4-fluoro-1-oxoisoindolin-2-yl)-N-(thiazol-2-yl)acetamide], for which the values for the IC50 (with H1975 (setting [3]); in assay [1] (setting [4])) were 10 to 50 nM and 50 to 100 nM, respectively. The “Degradation … (substrate protein remaining %)” value with EGFR is given as “A (A is defined as 0% ≤ substrate protein remaining % ≤ 80%)”.
The corresponding values for `O=C1CCN(c2ccc(CN3CCN(C4CCN(c5ccc(-c6cc(F)c7c(c6)C(=O)N(C(C(=O)Nc6nccs6)c6ncn8c6CCC8)C7)cc5)CC4(F)F)CC3)cn2)C(=O)N1` (stereo not shown) [GT-06320, 2-(6,7-dihydro-5H-pyrrolo[1,2-c]imidazol-1-yl)-2-(6-(4-(4-(4-((6-(2,4-dioxotetrahydropyrimidin-1(2H)-yl)pyridin-3-yl)methyl)piperazin-1-yl)-3,3-difluoropiperidin-1-yl)phenyl)-4-fluoro-1-oxoisoindolin-2-yl)-N-(thiazol-2-yl)acetamide] are 1 to 10 nM, 500 to 1000 nM and “A (A is defined as 0% ≤ substrate protein remaining % ≤ 80%)”.
On to `COc1cc(N2CCC(N3CCN(CCC#Cc4cccc5c4CN(C4CCC(=O)NC4=O)C5=O)CC3)CC2)ccc1Nc1ncc(Cl)c(Nc2ccccc2P(C)(C)=O)n1` (stereo not shown) [HJM-561, reference compound], for which the IC50 in the assay with PC-9 (CCK-8, 96 hours) lay within 100 to 500 nM; in the assay on H1975 (CCK-8, 96 hours), 50 to 100 nM; in assay [1] (CCK-8, osimertinib-resistant H1975 cells obtained by treating H1975 cells with 1 µM Osimertinib for 3 months, read-out: Inhibitory activity (IC50) on tumor cell proliferation, H1975-1µm Osimertinib) it was 1000 to 5000 nM; in the assay on HCC827 (CCK-8, 96 hours), 500 to 1000 nM.
For the compound `C=CC(=O)Nc1cc(Nc2nccc(-c3cn(C)c4ccccc34)n2)c(OC)cc1N(C)CCN(C)C` [osimertinib, reference compound], the IC50 was 10 to 50 nM in the assay on PC-9 (Homo sapiens, PC-9, 96 h); 100 to 500 nM in the assay on H1975 (Homo sapiens, NCI-H1975, 96 h); more than 10000 nM in assay [1] (Homo sapiens, NCI-H1975, read-out: Inhibitory activity (IC50) on tumor cell proliferation, H1975-1µm Osimertinib); 10 to 50 nM in the assay with HCC827 (Homo sapiens, HCC827, 96 h).
